Values joined by “and” are separate entries in the source; they are usually repeats but may differ in a detail not shown here. Equal entries are not always repeated. Where two headings read alike, the source gives them in different places.
What was measured:
[1] = Cell viability (WST / CCK-8 absorbance at 450 nm); assay type: cell-based, Human; conditions: human, follicle dermal papilla cells, 24 hours
Description: (§1) Human follicle dermal papilla cells (PromoCell GmbH) were cultured in human follicle dermal papilla cells growth medium(PromoCell GmbH) supplemented with fetal calf serum(FCS), bovine pituitary extract(BPE), basic fibroblast growth factor(bFGF), and insulin at 37°C and 5% CO2.
(§2) […] WST substrate solution (high sensitivity water soluble tetrazolium salt, CCK-8, DOJINDO) was then added to the medium, and cultured at 37°C for 2 hours.
(§3) During the culture, a […] formazan was produced by the reaction between WST and intracellular dehydrogenase, and the absorbance (OD, wavelength 450 nm) was measured. The cell viability was calculated according to the following Equation 1 below, and the results are shown in Table 1 below. [formula]
(§4) In Equation 1, the 'experimental group' is the group treated with an aqueous solution containing 3HP; the 'control group' is the medium containing only the WST substrate; and the 'negative control group' is the group in which a medium containing WST substrate was treated with an aqueous solution of 0% 3HP.

[2] = tested on: Human follicle dermal papilla cells; assay: Cell viability (WST / CCK-8 absorbance at 450 nm); assay type: cell-based; conditions: for Human follicle dermal papilla cell viability (%): 24 hours, single runs (Once / Two times / Three times), 1440 min
Description: as §1, §2, §3, §4

Srd5α1 = assay: 5α-reductase gene expression by real-time PCR (relative quantification vs GAPDH); assay type: cell-based, Human; conditions: for mrna remaining at 0.0125 %: 3HP 0.0125 %; for mrna remaining at 0.025 %: 3HP 0.025 %
Description: as §1
(§5) The cultured human follicle dermal papilla cells were divided into 5x10^4 cells in a 96-well plate, and when the cells reached 80% or more confluency, they were treated with the 3-hydroxypropionic acid aqueous solution according to Preparation Example 1 at four concentrations (3HP concentrations: 0 wt.%, 0.0125 wt.%, 0.025 wt.%, and 0.05 wt.%), and then cultured for 24 hours. Then, the total RNA in the cells was extracted, and cDNA was synthesized from the extracted RNA. The synthesized cDNA was subjected to real-time polymerase chain reaction. And, the relative quantitative analysis of each gene was performed using GAPDH (one of the house-keeping genes). The relative quantification (RQ) value was calculated according to the following Equation 2. RQ = 2−ΔΔCT; ΔΔCT = ΔCT (Treatment)−ΔCT (Control); ΔCT = CT (Targetgene)−CT (House-keepinggene) [formula]
(§6) In the Equation 2, 'Treatment' is the group treated with 3HP; 'Control' is the group not treated with 3HP; 'Target gene' is Srd5α1 and TGF-β1, and 'House-keeping gene' is GAPDH.

TGF-β1 = TGF-β1 gene expression by real-time PCR (relative quantification vs GAPDH); assay type: cell-based, Human; conditions: for mrna remaining at 0.0125 %: 3HP 0.0125 %; for mrna remaining at 0.025 %: 3HP 0.025 %
Description: as §1, §5, §6

human hair follicles = assay: Ratio of hair follicle telogen in DHT-treated cultured hair follicles (visual evaluation); conditions: for Telogen ratio (%): 6 days
Description: (§7) The ratio of hair follicle telogen and the expression level of hair follicle cell proliferation-related factor proteins depending on whether 3-hydroxypropionic acid was applied or not were evaluated according to the following methods.
(§8) The human hair follicles or scalp tissues provided for research purposes (IRB No. 4-2023-1052; Institutional Review Board, Severance Medical Center, Yonsei University College of Medicine) were washed several times with PBS to remove residual impurities, and randomly divided into each group. The hair follicles and scalp tissues were cultured in Williams' Medium E (Sigma) supplemented with 2 mM L-glutamine (Sigma-Aldrich), 10 µg/ml insulin (Sigma-Aldrich), 100 ng/ml hydrocortisone (Sigma-Aldrich), 0.1% fungizone (Gibco, USA), and 1% antibioticantimycotic (Gibco), and 1% […] (Gibco) at 37°C in 5% CO2.
To induce the telogen in the anagen hair follicle tissue, the test composition was treated with 1 µM dihydrotestosterone (DHT). The medium was replaced every 3 days and cultured for 6 days. The ratio of hair follicle telogen was visually evaluated based on the ratio of hair follicles in which the telogen occurred for 6 days compared to day 0.

hair follicle cells = assay: Ki67 immunofluorescence staining of cultured scalp tissue (hair follicle cell proliferation); parameters: species or system human; conditions: for Ki67 positive cells (%): scalp tissue, 24 hours
Description: as §7, §8
After the scalp tissue was treated with the test composition for 24 hours, the obtained tissue was prepared into a frozen block, and frozen sectioned at a thickness of 5 µm using a Cryostat microtome (Leica Biosystems, Germany), and the tissue sections were attached onto Silane-coated slides. Then, in order to stain the tissue sections and photograph the cross sections, the OCT compound was removed, a primary antibody specifically binding to Ki67 (Anti-Ki67 antibody: ab15580; abcam) was attached, and a fluorescently labeled secondary antibody specifically binding to this primary antibody (Goat pAb to Rb IgG (H+L): a11012; Invitrogen) was attached. Finally, the tissues were fixed with a fixative containing blue fluorescent DAPI (VECTASHIELD® mounting medium with DAPI; Vector laboratories) that stains the cell nucleus, and then images were taken at 100x magnification using a fluorescence microscope (M2; Zeiss). The percentage of Ki67-expressing cells among the total cells labeled with DAPI was measured from the captured images, and a higher value means a higher number of Ki67-expressing cells.

[3] = Homo sapiens, 24 h, 24 hours, human follicle dermal papilla cells, Average, read-out: 5α-reductase gene expression level (RQ)
[4] = Homo sapiens, 24 h, 24 hours, human follicle dermal papilla cells, single runs (Once / Two times / Three times), read-out: 5α-reductase gene expression level (RQ)
[5] = Homo sapiens, 24 h, 24 hours, human follicle dermal papilla cells, Average, read-out: TGF-β1 gene expression level (RQ)
[6] = Homo sapiens, 24 h, 24 hours, human follicle dermal papilla cells, single runs (Once / Two times / Three times), read-out: TGF-β1 gene expression level (RQ)

What does the source list for `O=C(O)CCO` [Example 3HP, 3-hydroxypropionic acid]?
viability at 24 h ([1]; 3HP 0.0125 %, Average): 92.6%; viability at 24 h ([1]; 3HP 0.0125 %, single runs (Once / Two times / Three times)): 90.8%; viability at 24 h ([1]; 3HP 0.025 %, Average): 86.7%; viability at 24 h ([1]; 3HP 0.025 %, single runs (Once / Two times / Three times)): 86.6%; viability at 24 h ([1]; 3HP 0.05 %, Average): 85.8%; viability at 24 h ([1]; 3HP 0.05 %, single runs (Once / Two times / Three times)): 86.5%; viability at 24 h ([1]; 3HP 0.1%, Average): 75.3%; viability at 24 h ([1]; 3HP 0.1%, single runs (Once / Two times / Three times)): 77.5%; Human follicle dermal papilla cell viability (%) ([2]; 3HP 0.0125 %): 92.037% and 95.062%; Human follicle dermal papilla cell viability (%) ([2]; 3HP 0.025 %): 84.153% and 89.275%; Human follicle dermal papilla cell viability (%) ([2]; 3HP 0.05 %): 86.027% and 85.031%; Human follicle dermal papilla cell viability (%) ([2]; 3HP 0.1%): 72.756% and 75.694%; cell viability ([2]; under the treatment concentrations of Table 2, result in words): high; mrna remaining at 0.0125 % (Srd5α1; [3]): 86.6%; mrna remaining at 0.0125 % (Srd5α1; [4]): 85.6%; mrna remaining at 0.025 % (Srd5α1; [3]): 88.8%; mrna remaining at 0.025 % (Srd5α1; [4]): 87.1%; mrna remaining at 0.05 % (Srd5α1; Homo sapiens, 24 h, 3HP 0.05 %, 24 hours, human follicle dermal papilla cells, Average, read-out: 5α-reductase gene expression level (RQ)): 127%; expression of the 5α-reductase gene (Srd5α1; under the treatment concentration of Table 3, result in words): significantly inhibited; mrna remaining at 0.0125 % (TGF-β1; [5]): 80.2%; mrna remaining at 0.0125 % (TGF-β1; [6]): 75.6%; mrna remaining at 0.025 % (TGF-β1; [5]): 69.4%; mrna remaining at 0.025 % (TGF-β1; [6]): 70.4%; mrna remaining at 0.05 % (TGF-β1; Homo sapiens, 24 h, 3HP 0.05 %, 24 hours, human follicle dermal papilla cells, Average, read-out: TGF-β1 gene expression level (RQ)): 130%; expression of the TGF-β1 gene (TGF-β1; under the treatment concentration of Table 4, result in words): significantly inhibited; hair follicle telogen ratio (human hair follicles; 0.1%, 0.5%, and 1.0% 3HP compared to the DHT control group, result in words): significantly decreased; Telogen ratio (%) (human hair follicles; DHT + 0.1% 3HP): 6.250%; Telogen ratio (%) (human hair follicles; DHT + 0.5% 3HP): 0.000%; Telogen ratio (%) (human hair follicles; DHT + 1.0% 3HP): 0.000%; proliferation effect of hair follicle cells (hair follicle cells; 0.1% 3HP compared to the negative control group, Ki67 immunofluorescence staining, result in words): significantly increased; Ki67 positive cells (%) (hair follicle cells; 0.1% 3HP): 48.745%

For `CC(C)(C)NC(=O)[C@H]1CC[C@H]2[C@@H]3CC[C@H]4NC(=O)C=C[C@]4(C)[C@H]3CC[C@]12C` [Finasteride, reference compound], which “Telogen ratio (%)” value (human hair follicles; DHT + 0.5 mM Finasteride) is on record?
The value was 0.000%.

Which “Telogen ratio (%)” value (human hair follicles; 1 µM DHT alone (DHT control group)) does the source give for `C[C@]12CCC(=O)C[C@@H]1CC[C@@H]1[C@@H]2CC[C@]2(C)[C@@H](O)CC[C@@H]12` [DHT, dihydrotestosterone, reference compound] here?
The value was 40.000%.

Which “Ki67 positive cells (%)” value (hair follicle cells; 0.1 mM Minoxidil) does the source give for `Nc1cc(N2CCCCC2)nc(N)[n+]1[O-]` [Minoxidil, reference compound] here?
Its value is 47.187%.

Which results are given for `O=C(O)CCCC[C@@H]1SC[C@@H]2NC(=O)N[C@@H]21` [Biotin, reference compound]?
Telogen ratio (%) (human hair follicles; DHT + 2 ng/ml Biotin): 10.000%; Ki67 positive cells (%) (hair follicle cells; 2 ng/ml Biotin): 44.631%
